Experimental data taken from the CheMixHub viscosity set.

Test: xn = mol fraction of the nth substance listed

CCNc1ccccc1 + CCCCCCCCO
viscosity [mPa·s], 101 kPa
Settings | 303.15 K | 308.15 K | 313.15 K
x1 = 0.0802 | 5.589 | 4.869 | 3.822
x1 = 0.1625 | 5.024 | 4.381 | 3.478
x1 = 0.2541 | 4.463 | 3.898 | 3.134
x1 = 0.3514 | 3.937 | 3.445 | 2.808
x1 = 0.4421 | 3.504 | 3.071 | 2.537
x1 = 0.5012 | 3.248 | 2.851 | 2.375
x1 = 0.5741 | 2.96 | 2.601 | 2.19
x1 = 0.6214 | 2.787 | 2.451 | 2.078
x1 = 0.6952 | 2.538 | 2.235 | 1.915
x1 = 0.7412 | 2.395 | 2.112 | 1.822
x1 = 0.7954 | 2.238 | 1.975 | 1.717
x1 = 0.8412 | 2.114 | 1.867 | 1.635
x1 = 0.8921 | 1.984 | 1.756 | 1.549

CCNc1ccccc1 + CCCCCCCO
viscosity [mPa·s], 101 kPa
Settings | 303.15 K | 308.15 K | 313.15 K
x1 = 0.0812 | 4.393 | 4.271 | 4.154
x1 = 0.1589 | 4.051 | 3.907 | 3.774
x1 = 0.2456 | 3.705 | 3.541 | 3.394
x1 = 0.3612 | 3.288 | 3.108 | 2.948
x1 = 0.4304 | 3.063 | 2.875 | 2.711
x1 = 0.5023 | 2.847 | 2.653 | 2.486
x1 = 0.5744 | 2.646 | 2.449 | 2.278
x1 = 0.6415 | 2.474 | 2.273 | 2.103
x1 = 0.7125 | 2.304 | 2.102 | 1.932
x1 = 0.7754 | 2.166 | 1.963 | 1.794
x1 = 0.8214 | 2.071 | 1.867 | 1.7
x1 = 0.8741 | 1.966 | 1.765 | 1.6
x1 = 0.9214 | 1.878 | 1.678 | 1.516

COCC(C)OCC(C)OC (stereo unspecified) + CCCCCCCO
Settings | viscosity [mPa·s]
298.15 K, 101 kPa, x1 = 0.4532 | 1.895

ClCCCl + CCCCCCCO
303.15 K, 101 kPa
Settings | viscosity [mPa·s]
x2 = 0.1082 | 0.852
x2 = 0.1749 | 0.918
x2 = 0.3034 | 1.082
x2 = 0.456 | 1.415
x2 = 0.5496 | 1.752
x2 = 0.622 | 2.078
x2 = 0.7978 | 3.174
x2 = 0.8642 | 3.699
x2 = 0.9346 | 4.286

CCNc1ccccc1 + CCCCCCO
viscosity [mPa·s], 101 kPa
Settings | 303.15 K | 308.15 K | 313.15 K
x1 = 0.0815 | 3.513 | 3.35 | 3.189
x1 = 0.1812 | 3.243 | 3.069 | 2.9
x1 = 0.2501 | 3.07 | 2.889 | 2.719
x1 = 0.3121 | 2.922 | 2.736 | 2.565
x1 = 0.3956 | 2.737 | 2.546 | 2.374
x1 = 0.4652 | 2.594 | 2.399 | 2.227
x1 = 0.5285 | 2.47 | 2.273 | 2.101
x1 = 0.6124 | 2.318 | 2.119 | 1.947
x1 = 0.6758 | 2.21 | 2.01 | 1.84
x1 = 0.7415 | 2.105 | 1.904 | 1.735
x1 = 0.8012 | 2.014 | 1.813 | 1.647
x1 = 0.8652 | 1.922 | 1.722 | 1.557
x1 = 0.9114 | 1.857 | 1.659 | 1.496

ClCCCl + CCCCCCO
303.15 K, 101 kPa
Settings | viscosity [mPa·s]
x1 = 0.1515 | 2.572
x1 = 0.302 | 1.864
x1 = 0.5095 | 1.235
x1 = 0.6031 | 1.047
x1 = 0.7397 | 0.9
x1 = 0.9017 | 0.73

COCC(C)OCC(C)OC (stereo unspecified) + CCCCCO
Settings | viscosity [mPa·s]
298.15 K, 101 kPa, x1 = 0.4941 | 1.345

ClCCCl + CCCCCO
303.15 K, 101 kPa
Settings | viscosity [mPa·s]
x1 = 0.1509 | 2.002
x1 = 0.3002 | 1.472
x1 = 0.4539 | 1.111
x1 = 0.6003 | 0.906
x1 = 0.7472 | 0.777
x1 = 0.8986 | 0.706

ClCCl + CCCCCO
298.15 K, 101 kPa
Settings | viscosity [mPa·s]
x2 = 0.0966 | 0.7741
x2 = 0.194 | 1.097
x2 = 0.2921 | 1.391
x2 = 0.3909 | 1.669
x2 = 0.4905 | 1.93
x2 = 0.5908 | 2.182
x2 = 0.6919 | 2.437
x2 = 0.7938 | 2.688
x2 = 0.8965 | 2.927

ClCCl + CCCCN
viscosity [mPa·s], 101 kPa
Settings | x2 = 0.102 | x2 = 0.1371 | x2 = 0.2306 | x2 = 0.3081 | x2 = 0.435 | x2 = 0.5159 | x2 = 0.5926 | x2 = 0.6971 | x2 = 0.8192 | x2 = 0.9041
293.15 K | 0.441 | 0.443 | 0.448 | 0.452 | 0.46 | 0.466 | 0.471 | 0.477 | 0.486 | 0.493
298.15 K | 0.418 | 0.421 | 0.425 | 0.427 | 0.434 | 0.439 | 0.443 | 0.446 | 0.454 | 0.457
303.15 K | 0.401 | 0.403 | 0.406 | 0.409 | 0.414 | 0.417 | 0.42 | 0.424 | 0.429 | 0.433
308.15 K | 0.385 | 0.386 | 0.39 | 0.392 | 0.395 | 0.397 | 0.4 | 0.402 | 0.405 | 0.408

CCC(C)Br (stereo unspecified) + CCCCO
viscosity [mPa·s], 101.3 kPa
Settings | x1 = 0.1031 | x1 = 0.2031 | x1 = 0.3016 | x1 = 0.4044 | x1 = 0.5054 | x1 = 0.5983 | x1 = 0.7019 | x1 = 0.8026 | x1 = 0.9
298.15 K | 2.035 | 1.634 | 1.325 | 1.097 | 0.9278 | 0.8012 | 0.7037 | 0.6308 | 0.5835
313.15 K | 1.426 | 1.174 | 0.9794 | 0.8345 | 0.7206 | 0.6389 | 0.5736 | 0.523 | 0.4876

CCNc1ccccc1 + CCCCO
303.15 K, 101 kPa
Settings | viscosity [mPa·s]
x1 = 0.0702 | 2.203
x1 = 0.1296 | 2.187
x1 = 0.1901 | 2.173
x1 = 0.2568 | 2.154
x1 = 0.3204 | 2.132
x1 = 0.3725 | 2.114
x1 = 0.4414 | 2.085
x1 = 0.5136 | 2.047
x1 = 0.5841 | 2.007
x1 = 0.6525 | 1.97
x1 = 0.7225 | 1.926
x1 = 0.7954 | 1.873
x1 = 0.8741 | 1.819

ClCCCl + CCCCO
viscosity [mPa·s], 101 kPa
Settings | x2 = 0.0969 | x2 = 0.2052 | x2 = 0.3178 | x2 = 0.4683 | x2 = 0.5618 | x2 = 0.6768 | x2 = 0.856
303.15 K | 0.7121 | 0.7449 | 0.8081 | 0.9418 | 1.062 | 1.272 | 1.744
313.15 K | 0.6205 | 0.6427 | 0.692 | 0.7892 | 0.8734 | 1.036 | 1.378
323.15 K | 0.5584 | 0.571 | 0.6061 | 0.6791 | 0.7447 | 0.8711 | 1.123
